The record followed here is US7642261B2, “Use of 1-[4-(5-cyanoindol-3-yl)butyl]-4-(2-carbamoyl-benzofuran-5-yl)-piperazine and its physiologically acceptable salts” (Merck Patent GmbH, priority 2002, dated 2010).

The assay deals with mice. Nature of the assay: Marble Burying Test (model for OCSD including OCD). The class given is in vivo. The conditions noted are these: dose equieffective to 3 mg/kg of the hydrochloride (92% inhibition). How it is done: A typical model for OCSD including OCD is the Marble Burying Test according to Y. Ichimaru, T. Egawa, A. Sawa, Jpn. J. Pharmacol. 1995, 68: 65-70.
The apparatus consists of an open cubic box with 25 clean glass marbles evenly spaced on sawdust. Individual mice are placed in the test box, and the number of glass marbles left uncovered after 20 minutes are counted. 1-[4-(5-cyanoindol-3-yl)butyl]-4-(2-carbamoyl-benzofuran-5-yl)-piperazine or one of its physiologically acceptable salts, in particular 1-[4-(5-cyanoindol-3-yl)butyl]-4-(2-carbamoyl-benzofuran-5-yl)-piperazine hydrochloride, following subcutaneous application inhibits mable burying in mice dose-dependently. For example, a dose of 3 mg/kg of 1-[4-(5-cyanoindol-3-yl)butyl]-4-(2-carbamoyl-benzofuran-5-yl)-piperazine hydrochloride nearly completely (92%) inhibits marble burying; equieffective doses of conventional serotonin reuptake inhibitors are e.g. 20 mg/kg for fluvoxamine or 17 mg/kg for fluoxetine and an equieffective dose of the 5-HT1A agonist ipsapirone is 10 mg/kg.

`COCCCC/C(=N\OCCN)c1ccc(C(F)(F)F)cc1` [fluvoxamine]: the “equieffective dose for inhibition of marble burying” value (“equieffective dose for inhibition” for short) is on record as 20 mg/kg.

For `CNCCC(Oc1ccc(C(F)(F)F)cc1)c1ccccc1` (stereo not drawn) [fluoxetine], the “equieffective dose for inhibition” value amounted to 17 mg/kg.

`O=C1c2ccccc2S(=O)(=O)N1CCCCN1CCN(c2ncccn2)CC1` [ipsapirone]: the “equieffective dose for inhibition” value came to 10 mg/kg.
